{
  "source": "patent US20070032477A1",
  "about": "“Pteridine derivatives useful for making pharmaceutical compositions” (priority 2003, published 2007)",
  "key": {"[1]": {"tested_on": "B16BL/6 melanomasarcoma cells in C57BL/6 mice", "assay": "Inhibition of the metastasis of melanoma cells in mice", "type": "in vivo", "settings": "for proportion of mice having metastasis: inguinal and/or para-aortic lymph nodes", "procedure": "C57BL/6 mice were injected with 1.5×10^6 B16BL/6 melanomasarcoma cells subcutaneously in the foot path and were divided, three days later, into 4 groups: • a control 1 group of 6 mice receiving only vehicle 3 times a week; • a control 2 group of 5 mice receiving a lethal dose of TNF (15 μg, subcutaneously) 3 times a week; • a group 3 receiving the pteridine derivative of example 17 alone 3 times a week at 20 mg/kg • a group 4 of 7 mice receiving the pteridine derivative of example 17 in an amount of 20 mg/kg intraperitenously on days 3, 4, and 5 and also receiving TNF (15 μg, subcutaneously) on day 5. This combined treatment with TNF and the pteridine derivative of example 17 was continued for 2 weeks.\nReduction of tumor size is also true in mice of group 3, although to a lesser extent (198 mm^2).\nAll mice of control group 2 died within the very first days of treatment, whereas mortality was 3/7 in mice of group 4.\nAt the end of experiment, it was looked macroscopically at black metastasis in inguinal and/or para-aortic lymphoneuds in all tumor bearing groups of mice. The proportions of mice having metastasis were: • 4/5 mice in control group 1, • 0/4 mice in group 4, and • 2/4 in group 3."}, "[2]": {"tested_on": "TNBS-induced colitis in C57 BL/6 mice", "assay": "Trinitrobenzenesulfonate-induced colitis test in mice (Example 209)", "type": "in vivo", "procedure": "C57 BL/6 mice (4-5 weeks) were obtained from M&B (Denmark), bred under standard pathogen-free conditions and maintained in the certified animal facility of the University Hospital Gasthuisberg, Catholic University of Leuven (Belgium). Experiments were approved by the local Ethical Committee of Animal Experimentation. Mice were sensitized twice 10 days and 5 days before rectal challenge. For sensitization, a 2×2 cm field of the abdominal skin was shaved, and 100 μl of 5 mg trinitrobenzenesulfonate (hereinafter referred as TNBS) in 50% ethanol solution was applied. On the day of challenge, mice were first lightly anesthetized with metofane. Subsequently TNBS (1 mg in 50% ethanol) was administered per rectum via a round-tip needle equipped with a 1-ml syringe. The tip of the needle was inserted so that the tip was about 3.5 to 4 cm proximal to the anal verge and TNBS was injected with a total volume of 100 μl. To ensure distribution of TNBS within the entire colon and cecum, mice were held in a vertical position for 1 minute after the injection.\nThe compound of example 176 (2-amino-6-(3,4-dimethoxyphenyl)-4-[N-(4-methyl-phenyl)-piperazin-1-yl]pteridine) was given to the mice by daily gavage at the dose of 20 mg/kg (400 μg in 100 μl H2O). Control mice were treated with 100 μl H2O only. Body weights of all animals were recorded daily in order to follow the development of inflammatory colitis over a period of 10 days.\nBoth macroscopic and microscopic histology evaluations were performed as follows. Mice were sacrificed at day 2 by cervical […], the colon was excised and was immediately examined visually, and damage was scored on a 0-12 scale. Colon sections were then fixed in 6% formalin and embedded in paraffin, cut into sections, and then stained with hematoxylin and eosin. Stained sections were examined for evidence of colitis using as criteria the presence of cell infiltration, elongation and/or distortion of crypts, crypt abscesses, reduction in goblet cell number, frank ulceration, and oedema formation.\nMPO activity was measured as follows. Two days after intracolonic injection of TNBS, 50 mg colon was removed, homogenised and sonicated on ice. Samples were frozen in liquid nitrogen and subsequently thawed in a water bath at 37° C., each step lasted 3 minutes and the procedure was repeated for two cycles. After centrifugation, an aliquot of the supernatant was then allowed to react with a solution of tetra-methyl-benzidine (1.6 mM) and 0.1 mM H2O2. The rate of change in absorbance was measured spectrophotometrically at 460 nm. MPO activity was defined as the quantity of enzyme degrading 1 μmole of peroxide/minute at 37° C. and was expressed in units per gram weight of wet tissue. Sample enzyme activity was measured from a standard curve of known MPO unit activity (assay sensitivity 5×10^−7 units per well).\nQuantitative Reverse Transcriptase (RT)-PCR for cytokine mRNA was performed as follows: part of the colon tissues, removed on day 2 after TNBS application, was immediately frozen in liquid nitrogen after dissection and stored at −70° C. until extraction of total RNA using a method well known in the art. A constant amount of 1 μg of total RNA was used for oligo-(dT)-primed cDNA synthesis (Ready-to-go-kit, commercially available from Pharmacia, Sweden). After 90 minutes at 37° C., the reverse transcriptase was inactivated by incubating the cDNA samples for 5 minutes at 95° C. The amount of cDNA was quantified by real-time RT-PCR using specific primers for β-actin and TNF, with the ABI Prism 7700 Sequence Detectin System (SDS) commercially available from Applied Biosystems (California). PCR was performed in a total volume of 25 μl, containing 5 μl cDNA and 20 μl mix with the TaqMan® Universal PCR Master Mix (2×) (Applied Biosystems) combined with 300 nM of the primer and 100 nM of the probe. […]"}, "[3]": {"assay": "Plasma levels after oral administration in healthy mice", "type": "in vivo, C57BL/6 mice", "procedure": "Each group of 6 mice received the indicated dose at time point 0 and were bled at 1, 3 and 5 hours after compound administration. Quantification was performed using a calibration curve of known compound concentrations spiked in control serum.\nThe plasma levels of the tested compound (example 176) was evaluated in C57BL/6 mice 8-10 weeks old Harlan, weighing 18.6-22.0 g after oral administration of 20, 10, 5 and 1 mg/kg, respectively (n=6 per dose). The tested compound (example 176) was dissolved in water to the appropriate concentration in order to deliver a constant gavage volume of 10 μl/g of body weight. Blood was collected by eye bleeding with heparinized capillaries at 1, 3, and 5 hours after dosing from each animal. The plasma fraction was immediately separated by centrifugation for 2 minutes at 12,000 g and stored at −80° C. until analysis. Each plasma sample was spiked with internal standard followed by the addition of 4 volumes of methanol. The samples were kept for 30 minutes on ice prior to centrifugation (10 minutes at 12,000 g) in order to remove precipitated proteins. The supernatant was analyzed for the presence of the tested compound (example 176), using LC/MS/MS. As standard for the bio-analysis, the tested compound (example 176) was diluted stepwise; each dilution was added to control plasma; additionally spiked with internal standard, giving rise to standard curves from 200 to 40,000 nM."}, "[4]": {"settings": "group 4: example 17 20 mg/kg i.p. combined with TNF 15 μg s.c."}, "[5]": {"settings": "daily gavage 20 mg/kg, versus control mice"}},
  "data": [
    {"compound": "COc1ccc(-c2cnc3nc(N)nc(N4CCN(C(=O)COc5ccccc5)CC4)c3n2)cc1OC", "note": "[Example 17, 2-amino-4-[(N-phenoxyacetyl)-piperazin-1-yl]-6-(3,4-dimethoxy-phenyl)pteridine]", "values": [
      {"measurement": "tumor size", "setting": "[1]; group 3: example 17 alone 3 times a week at 20 mg/kg", "value": 198, "unit": "mm^2"},
      {"measurement": "proportion of mice having metastasis", "setting": "[1]; group 3: example 17 alone", "value": "2/4"},
      {"measurement": "mortality", "setting": "[1]; [4]", "value": "3/7"},
      {"measurement": "tumor size", "setting": "[1]; [4]", "value": 120, "unit": "mm^2"},
      {"measurement": "proportion of mice having metastasis", "setting": "[1]; group 4: example 17 combined with TNF", "value": "0/4"}
    ]},
    {"compound": "COc1ccc(-c2cnc3nc(N)nc(N4CCN(c5ccc(C)cc5)CC4)c3n2)cc1OC", "note": "[Example 176, 2-amino-6-(3,4-dimethoxyphenyl)-4-((4-methylphenyl)-piperazin-1-yl)pteridine]", "values": [
      {"measurement": "recovery of original body weight earlier than control mice", "setting": "[2]; daily gavage 20 mg/kg", "value": "at least 4 days"},
      {"measurement": "microscopic score", "setting": "[2]; daily gavage 20 mg/kg, day 2", "value": "5.7±0.6"},
      {"measurement": "average macroscopic score", "setting": "[2]; daily gavage 20 mg/kg, day 2, 0-12 scale", "value": "6.2±0.4"},
      {"measurement": "tissue MPO activity in colon", "setting": "[2]; daily gavage 20 mg/kg, two days after TNBS", "value": "6.7±1.4", "unit": "U/g"},
      {"measurement": "decrease of tissue MPO activity", "setting": "[2]; [5]", "value": 2, "unit": "fold"},
      {"measurement": "reduction in average macroscopic score", "setting": "[2]; [5]", "value": 30, "unit": "%"},
      {"measurement": "mRNA for other cytokines (IFN-γ and IL-18) in colon", "setting": "[2]; day 2, compared to control mice", "value": "no difference"},
      {"measurement": "cytokine mRNA level for TNF in colon", "setting": "[2]; day 2, ratio to β-actin multiplied by 10^6", "value": "18.1±8.5"},
      {"measurement": "Anti-TNBS antibody (IgG1 and IgG2a) levels", "setting": "[2]; serum day 10, compared to control mice", "value": "similar"},
      {"measurement": "serum level 5 hours after administration compared with TNF-alpha assay IC50", "setting": "[3]; 20 mg/kg oral", "value": "still above the IC50 value of the TNF-alpha assay"},
      {"measurement": "circulating concentration (peak serum level)", "setting": "[3]; 20 mg/kg oral, one hour after administration", "value": "approximately 1 μM"},
      {"measurement": "serum levels after 5 hours compared with TNF assay IC50", "setting": "[3]; all lower doses (10, 5 and 1 mg/kg oral)", "value": "lower than the IC50 value in the TNF assay"},
      {"measurement": "peak serum levels with increasing doses", "setting": "[3]; oral 1, 5, 10, 20 mg/kg, one hour after administration", "value": "dose-dependent increase"}
    ]}
  ]
}
